SMILES strings stand for the structures. Counter-ions that a name gives are not always drawn.

For this test, the target named is T1, Human thrombin (Homo sapiens, UniProt P00734).
T1 construct: purchased Haematologic Technologies Inc
Description: Thrombin protease activity inhibition, chromogenic substrate S-2238. The conditions noted are these: 3 nM thrombin, 125 μM S-2238, 10 min pre-incubation, RT. In kind it is biochemical. On the procedure:
The thrombin activity reported herein (e.g., Table A) was obtained as follows. […] Thrombin was assayed in buffer containing 0.05 M Tris (pH 7.4), 0.015 M NaCl and 0.01% PEG-8000. The final concentration of enzyme used was 3 nM thrombin. […] All assays were performed in 96-well microtiter plates at room temperature (RT). […] Inhibitor IC50 values were determined by adding test compound as ten point, three-fold serial dilutions in buffer solution, as known in the art. The plate was read at 10 minutes after substrate addition. The IC50 was calculated by plotting the percent (%) inhibition against compound concentration and fitting the data to a constrained four parameter sigmoidal curve, as known in the art.
The compound `COc1ccccc1C(=O)n1nc(C2CCCN2C(=O)OC(C)(C)C)cc1NCc1ccc(Cl)s1` (centres unmarked) [Entry 273, tert-butyl 2-(5-[(5-chlorothiophen-2-yl)methyl]amino-1-(2-methoxybenzoyl)-1H-pyrazol-3-yl)pyrrolidine-1-carboxylate] had an IC50 of 1000 to 10000 nM. Under `COc1ccccc1C(=O)n1nc(C2CCN(CC(F)(F)F)CC2)cc1NCc1ccc(Cl)s1` [Entry 160, N-[(5-chlorothiophen-2-yl)methyl]-1-(2-methoxybenzoyl)-3-[1-(2,2,2-trifluoroethyl)piperidin-4-yl]-1H-pyrazol-5-amine] stands 1000 to 10000 nM; under `CC1(C(=O)n2nc(C3(C)CCNC3=O)cc2NCc2ccc(Cl)s2)CCOCC1` (centres unmarked) [Entry 122, 3-(5-[(5-chlorothiophen-2-yl)methyl]amino-1-(4-methyloxane-4-carbonyl)-1H-pyrazol-3-yl)-3-methylpyrrolidin-2-one], 100 to 1000 nM; under `COc1ccccc1C(=O)n1nc(C2(C)CCCNC2=O)cc1NCc1ccc(Cl)s1` (centres unmarked) [Entry 117, 3-(5-[(5-chlorothiophen-2-yl)methyl]amino-1-(2-methoxybenzoyl)-1H-pyrazol-3-yl)-3-methylpiperidin-2-one], 100 to 1000 nM.

Compound `O=C(c1ccccc1)n1nc(C2CCNCC2)cc1NCc1ccc(Cl)s1` [Entry 105, 1-benzoyl-N-[(5-chlorothiophen-2-yl)methyl]-3-(piperidin-4-yl)-1H-pyrazol-5-amine hydrochloride] had an IC50 of 100 to 1000 nM.

In the case of `O=C(c1ccoc1)n1nc(C2CNC2)cc1NCc1ccc(Cl)s1` [Entry 128, 3-(azetidin-3-yl)-N-[(5-chlorothiophen-2-yl)methyl]-1-(furan-3-carbonyl)-1H-pyrazol-5-amine; trifluoroacetic acid], the IC50 lay within 1000 to 10000 nM.

Take `CC1CCCC(C)C1C(=O)n1nc(C2CCNCC2)cc1NCc1ccc(Cl)s1` (centres unmarked) [Entry 151, N-[(5-chlorothiophen-2-yl)methyl]-1-(2,6-dimethylcyclohexanecarbonyl)-3-(piperidin-4-yl)-1H-pyrazol-5-amine hydrochloride]: the IC50 fell in the range of 1000 to 10000 nM. Take `C=CCOC(=O)N1CCN(S(=O)(=O)N2CCOCC2)CC1c1cc(NCc2ccc(Cl)s2)[nH]n1` (centres unmarked) [Entry 250, prop-2-en-1-yl 2-(5-[(5-chlorothiophen-2-yl)methyl]amino-1H-pyrazol-3-yl)-4-(morpholine-4-sulfonyl)piperazine-1-carboxylate]: the IC50 was more than 100000 nM. `C=CCOC(=O)N1CCCC(c2cc(NCc3ccc(Cl)s3)[nH]n2)CC1` (centres unmarked) [Entry 265, prop-2-en-1-yl 4-(5-[(5-chlorothiophen-2-yl)methyl]amino-1H-pyrazol-3-yl)azepane-1-carboxylate] came in with an IC50 of more than 100000 nM. In turn, `COC(C)(C)C(=O)n1nc(C2CCNCC2)c(F)c1NCc1ccc(Cl)s1` [Entry 86, 1-(5-[(5-chlorothiophen-2-yl)methyl]amino-4-fluoro-3-(piperidin-4-yl)-1H-pyrazol-1-yl)-2-methoxy-2-methylpropan-1-one] gave an IC50 of 100 to 1000 nM. As for `CN(C)S(=O)(=O)N1CCC(c2cc(NCc3ccc(Cl)s3)n(C(=O)C(C)(C)C)n2)CC1` [Entry 133, 4-(5-[(5-chlorothiophen-2-yl)methyl]amino-1-(2,2-dimethylpropanoyl)-1H-pyrazol-3-yl)-N,N-dimethylpiperidine-1-sulfonamide], the IC50 was 100 to 1000 nM. Under `CC(C)(CO)C(=O)n1nc(C2(C)CCCNC2=O)cc1NCc1ccc(Cl)s1` (centres unmarked) [Entry 119, 3-(5-[(5-chlorothiophen-2-yl)methyl]amino-1-(3-hydroxy-2,2-dimethylpropanoyl)-1H-pyrazol-3-yl)-3-methylpiperidin-2-one] stands 100 to 1000 nM; under `COCC(C)(C)C(=O)n1nc(C2(C)CCCN(C(=O)OC(C)(C)C)C2)cc1NCc1ccc(Cl)s1` (centres unmarked) [Entry 284, tert-butyl 3-(5-[(5-chlorothiophen-2-yl)methyl]amino-1-(3-methoxy-2,2-dimethylpropanoyl)-1H-pyrazol-3-yl)-3-methylpiperidine-1-carboxylate], 100 to 1000 nM.

For `C=CCOC(=O)N1CCN(S(C)(=O)=O)CC1c1cc(NCc2ccc(Cl)s2)[nH]n1` (centres unmarked) [Entry 252, prop-2-en-1-yl 2-(5-[(5-chlorothiophen-2-yl)methyl]amino-1H-pyrazol-3-yl)-4-methanesulfonylpiperazine-1-carboxylate], the half-maximal inhibitory concentration (IC50) is more than 100000 nM. `O=C(N1CCC(c2n[nH]c(NCc3ccc(Cl)s3)c2F)CC1)C1(O)CC1` [Entry 104, 1-[4-(5-[(5-chlorothiophen-2-yl)methyl]amino-4-fluoro-1H-pyrazol-3-yl)piperidine-1-carbonyl]cyclopropan-1-ol] came in with an IC50 of 10000 to 100000 nM. `CC1(C(=O)n2nc(C3(C)CCCNC3=O)cc2NCc2ccc(Cl)s2)CCOCC1` (centres unmarked) [Entry 121, 3-(5-[(5-chlorothiophen-2-yl)methyl]amino-1-(4-methyloxane-4-carbonyl)-1H-pyrazol-3-yl)-3-methylpiperidin-2-one]: the IC50 is 1000 to 10000 nM. The compound `CC(C)(C)OC(=O)N1CCCC(c2cc(NCc3ccc(Cl)s3)n(C(=O)c3ccsc3)n2)C1` (centres unmarked) [Entry 289, tert-butyl 3-(5-[(5-chlorothiophen-2-yl)methyl]amino-1-(thiophene-3-carbonyl)-1H-pyrazol-3-yl)piperidine-1-carboxylate] showed an IC50 of less than 100 nM. Regarding `CC1(C(=O)n2nc(C3CCN(C(=O)N4CCOCC4)CC3)cc2NCc2ccc(Cl)s2)CCC(O)CC1` (centres unmarked) [Entry 139, 4-(5-[(5-chlorothiophen-2-yl)methyl]amino-3-[1-(morpholine-4-carbonyl)piperidin-4-yl]-1H-pyrazole-1-carbonyl)-4-methylcyclohexan-1-ol], the IC50 was less than 100 nM. The compound `CC(C)(CO)C(=O)n1nc(C2CCN(CC(=O)O)CC2)cc1NCc1ccc(Cl)s1` [Entry 110, 2-[4-(5-[(5-chlorothiophen-2-yl)methyl]amino-1-(3-hydroxy-2,2-dimethylpropanoyl)-1H-pyrazol-3-yl)piperidin-1-yl]acetic acid] returned an IC50 of 100 to 1000 nM.

With `CC(C)(C)OC(=O)N1CCC(c2cc(NCc3ccc(Cl)s3)n(C(=O)c3ccsc3)n2)CC1` [Entry 301, tert-butyl 4-(5-[(5-chlorothiophen-2-yl)methyl]amino-1-(thiophene-3-carbonyl)-1H-pyrazol-3-yl)piperidine-1-carboxylate], the IC50 is less than 100 nM. In the case of `C=CCOC(=O)N1CCN(C(=O)CN2CCOCC2)CC1c1cc(NCc2ccc(Cl)s2)n(C(=O)C(C)(C)C)n1` (centres unmarked) [Entry 245, prop-2-en-1-yl 2-(5-[(5-chlorothiophen-2-yl)methyl]amino-1-(2,2-dimethylpropanoyl)-1H-pyrazol-3-yl)-4-[2-(morpholin-4-yl)acetyl]piperazine-1-carboxylate], the IC50 lay within 1000 to 10000 nM.

Compound `CC(C)(C)OC(=O)N1CCC(c2cc(NCc3ccc(Cl)s3)n(C(=O)C(C)(C)CO)n2)CC1` [Entry 297, tert-butyl 4-(5-[(5-chlorothiophen-2-yl)methyl]amino-1-(3-hydroxy-2,2-dimethylpropanoyl)-1H-pyrazol-3-yl)piperidine-1-carboxylate] displayed an IC50 of less than 100 nM.

`COc1ccc(C(=O)n2nc(C3CCNCC3)cc2NCc2ccc(Cl)s2)c(OC)c1` [Entry 147, N-[(5-chlorothiophen-2-yl)methyl]-1-(2,4-dimethoxybenzoyl)-3-(piperidin-4-yl)-1H-pyrazol-5-amine] returned an IC50 of 1000 to 10000 nM.

As a reminder, the IC50 is the concentration needed to halve the response being measured.

Values taken from patent US10532995B2, “Substituted pyrazole compounds as serine protease inhibitors” (VERSEON CORPORATION, priority 2015, dated 2020).
